One block for each compound: values may come before it.
Columns and labels:
[1] = tested on: mitochondrial fatty acid oxidation (rat heart mitochondria); assay: Palmitoyl CoA oxidation in isolated rat heart mitochondria; assay type: biochemical; details: 15 min at 30° C, DMSO control
Description: Compounds of this invention were evaluated in a rat heart mitochondiral assay as set forth below.
(§1) Rat heart mitochondria were isolated by the method of Nedergard and Cannon (methods in Enzymol. 55, 3, 1979).
Palmitoyl CoA oxidation—The Palmityl CoA oxidation was carried out in a total volume of 100 micro liters containing the following agents: 110 mM KCl, 33 mM Tris buffer at pH 8, 2 mM KPi, 2 mM MgCl2, 0.1 mM EDTA, 14.7 microM defatted BSA, 0.5 mM malic acid, 13 mM carnitine, 1 mM ADP, 52 micrograms of mitochondrial protein, and 16 microM 1-C14 palmitoyl CoA (Sp. Activity 60 mCi/mmole; 20 microCi/ml, using 5 microliters per assay). The compounds of this invention were added in a DMSO solution at the following concentrations: 100 microM, 30 microM, and 3 microM. In each assay, a DMSO control was used. After 15 min at 30° C., the enzymatic reaction was centrifuged (20,000 g for 1 min), and 70 microliters of the supernatant was added to an activated reverse phase silicic acid column (approximately 0.5 ml of silicic acid). The column was eluted with 2 ml of water, and 0.5 ml of the eluent was used for scintillation counting to determine the amount of C^14 trapped as C^14 bicarbonate ion.

[2] = tested on: mitochondrial fatty acid oxidation (rat heart mitochondria); assay: Palmitoyl carnitine oxidation in isolated rat heart mitochondria; assay type: biochemical; details: 15 min at 30° C, DMSO control
Description: as §1
The Palmitoyl carnitine oxidation was carried out in a total volume of 100 microliters containing the following agents: 110 mM KCl, 33 mM Tris buffer at pH 8, 2 mM KPi, 2 mM MgCl2, 0.1 mM EDTA, 0.1 mg/ml of defatted BSA, 0.5 mM malic acid, 3 mM ADP, 52 micrograms of mitochondrial protein, and 43 microM 1-C14 palmitoyl carnitine (Sp. Activity 60 mCi/mmole; 20 microCi/ml, using 5 microliters per assay). The compounds of this invention were added in a DMSO solution at the following concentrations: 100 microM, 30 microM, and 3 microM. In each assay, a DMSO control was used. After 15 min at 30° C., the enzymatic reaction was centrifuged (20,000 g for 1 min), and 70 microliters of the supernatant was added to an activated reverse phase silicic acid column (approximately 0.5 ml of silicic acid). The column was eluted with 2 ml of water, and 0.5 ml of the eluent was used for scintillation counting to determine the amount of C^14 trapped as C^14 bicarbonate ion. The data are presented as % activity of control in Table 3, below.

[3] = Metabolic stability in human liver S-9 fractions; details: human liver S9, 30 min at 37 C; for Liver S9 Parent Present relative to Ranolazine: 10 μM, % parent remaining divided by average % ranolazine remaining (57%)
Description: After, 30 minutes at 37 C, the amount of parent drug remaining was determined using LC-mass spec. The response factors for each compound was determined by establishing a standard curve and using an internal standard during the analysis of the samples. […] The compounds of this invention were assayed as described in the protocol below and the percentage of parent remaining was divided by the average % of ranolazine remaining (57%) affording a metabolic stability factor.
The purpose of this experiment is to compare the percentages remaining for compounds of this invention with the percentage remaining for ranolazine after 30 minutes of incubation with human liver S9 fractions.
The following reagents were used; Potassium phosphate, 0.5M pH 7.4 (incubation buffer), kept at room temperature; 0.05M MgCl2 kept at 4° C.; P-Nicotinamide adenine dinucleotide phosphate, tetrasodium salt, reduced form (NADPH), 0.02M solution in water (˜16.6mg/mL) from Sigma Lot #79H7044 prepared on day of use. 1 mM of ranolazine or Compounds 43, 45, 47, 52, 70, 74, 76, 78, and 80 in ACN further diluted to obtain 100 μM in 10% ACN; Human S9 stock: 20 mg/mL from Gentest.
Incubation mixtures were prepared as follows:
Combine all components with incubation buffer and re-pipette 200 μL/tube+25 μL of the compound being tested along with 25 μL of S-9.
After 5 min of pre-incubation at 37° C., at 0 and 30 min after starting the reaction, a 50 μl aliquot of the incubation mixture was removed and added to 100 μL of 9:1 acetonitrile: methanol containing the internal standard.
The mixture was centrifuged and a 100 μL aliquot of the supernatant was diluted in 1 mL of solvent C (0.1% Formic Acid in water). Then samples were analyzed for change between the ratio of compound to internal standard at time zero and 30 minutes by LC/MS (injected 10 EL).
Samples were analyzed for the starting compounds and potential metabolite/s by LC/MS using an internal standard and an ODS-C18 column with a flow rate of 0.25 ml/min.

Liver S9 Parent Present relative to Ranolazine [3]: 1.0
percentage of parent drug remaining at the 30 minute time point ([3]; average of five experiments): 57%
Structure (SMILES): COc1ccccc1OCC(O)CN1CCN(CC(=O)Nc2c(C)cccc2C)CC1 (racemic) [Ranolazine, (±)-N-(2,6-dimethylphenyl)-4-[2-hydroxy-3-(2-methoxyphenoxy)-propyl]-1-piperazineacetamide, reference compound]
Inhibition of mitochondrial fatty acid oxidation using palmitoyl CoA as substrate - % of Control ([1]; 30 μM compound): 90%
Inhibition of mitochondrial fatty acid oxidation using palmitoyl CoA as substrate - % of Control ([1]; 100 μM compound): 75%
Inhibition of mitochondrial fatty acid oxidation using palmitoyl carnitine as substrate - % of Control ([2]; 30 μM compound): 98%
Inhibition of mitochondrial fatty acid oxidation using palmitoyl carnitine as substrate - % of Control ([2]; 100 μM compound): 63%

Structure (SMILES): COc1ccccc1OCC(O)CN1C(C)CN(CC(=O)Nc2c(C)cccc2C)CC1C (stereo not shown) [Compound 7, N-(2,6-dimethylphenyl)-2-{4-[2-hydroxy-3-(2-methoxy)propyl]-3,5-dimethylpiperazinyl}acetamide]
Inhibition of mitochondrial fatty acid oxidation using palmitoyl CoA as substrate - % of Control ([1]; 3 μM compound): 107%
Inhibition of mitochondrial fatty acid oxidation using palmitoyl CoA as substrate - % of Control ([1]; 30 μM compound): 98%
Inhibition of mitochondrial fatty acid oxidation using palmitoyl CoA as substrate - % of Control ([1]; 100 μM compound): 85%
Inhibition of mitochondrial fatty acid oxidation using palmitoyl carnitine as substrate - % of Control ([2]; 3 μM compound): 109%
Inhibition of mitochondrial fatty acid oxidation using palmitoyl carnitine as substrate - % of Control ([2]; 30 μM compound): 102%
Inhibition of mitochondrial fatty acid oxidation using palmitoyl carnitine as substrate - % of Control ([2]; 100 μM compound): 95%

Liver S9 Parent Present relative to Ranolazine [3]: 1.20
Structure (SMILES): COc1ccccc1OCC(O)CN1C[C@@H](C)N(CC(=O)Nc2c(C)cccc2C)C[C@@H]1C (stereo partly drawn) [Compound 15, 2-{(5S,2R)-4-[2-hydroxy-3-(2-methoxyphenoxy)propyl]-2,5-dimethylpiperazinyl}-N-(2,6-dimethylphenyl)acetamide]
Inhibition of mitochondrial fatty acid oxidation using palmitoyl CoA as substrate - % of Control ([1]; 3 μM compound): 103%
Inhibition of mitochondrial fatty acid oxidation using palmitoyl CoA as substrate - % of Control ([1]; 30 μM compound): 97%
Inhibition of mitochondrial fatty acid oxidation using palmitoyl CoA as substrate - % of Control ([1]; 100 μM compound): 78%
Inhibition of mitochondrial fatty acid oxidation using palmitoyl carnitine as substrate - % of Control ([2]; 3 μM compound): 106%
Inhibition of mitochondrial fatty acid oxidation using palmitoyl carnitine as substrate - % of Control ([2]; 30 μM compound): 98%
Inhibition of mitochondrial fatty acid oxidation using palmitoyl carnitine as substrate - % of Control ([2]; 100 μM compound): 82%

Liver S9 Parent Present relative to Ranolazine [3]: 0.15
Structure (SMILES): COc1ccccc1OCC(O)CN1CCN(CC(=O)Nc2c(C)cccc2C)C(=O)C1 (stereo not shown) [Compound 16, N-(2,6-dimethylphenyl)-2-{4-[2-hydroxy-3-(2-methoxyphenoxy)propyl]-2-oxopiperazinyl}acetamide]
Inhibition of mitochondrial fatty acid oxidation using palmitoyl CoA as substrate - % of Control ([1]; 30 μM compound): 96%
Inhibition of mitochondrial fatty acid oxidation using palmitoyl CoA as substrate - % of Control ([1]; 100 μM compound): 100%
Inhibition of mitochondrial fatty acid oxidation using palmitoyl carnitine as substrate - % of Control ([2]; 100 μM compound): 64%

Liver S9 Parent Present relative to Ranolazine [3]: 0.45
Structure (SMILES): COc1ccccc1OCC(O)CN1CCN(CC(=O)Nc2c(C)cccc2C)C2CCCCC21 (stereo not shown) [Compound 17]
Inhibition of mitochondrial fatty acid oxidation using palmitoyl CoA as substrate - % of Control ([1]; 3 μM compound): 100%
Inhibition of mitochondrial fatty acid oxidation using palmitoyl CoA as substrate - % of Control ([1]; 30 μM compound): 98%
Inhibition of mitochondrial fatty acid oxidation using palmitoyl CoA as substrate - % of Control ([1]; 100 μM compound): 89%
Inhibition of mitochondrial fatty acid oxidation using palmitoyl carnitine as substrate - % of Control ([2]; 3 μM compound): 103%
Inhibition of mitochondrial fatty acid oxidation using palmitoyl carnitine as substrate - % of Control ([2]; 30 μM compound): 88%
Inhibition of mitochondrial fatty acid oxidation using palmitoyl carnitine as substrate - % of Control ([2]; 100 μM compound): 80%

Structure (SMILES): COc1ccccc1OCC(O)CN1CCN(CC(=O)Nc2c(C)cccc2C)CC1(C)C (stereo not shown) [Compound 18, N-(2,6-dimethylphenyl)-2-{4-[2-hydroxy-3-(2-methoxyphenoxy)propyl]-3,3-dimethylpiperazinyl}acetamide]
Inhibition of mitochondrial fatty acid oxidation using palmitoyl CoA as substrate - % of Control ([1]; 100 μM compound): 80%
Inhibition of mitochondrial fatty acid oxidation using palmitoyl carnitine as substrate - % of Control ([2]; 100 μM compound): 17%

Structure (SMILES): Cc1cccc(C)c1NC(=O)CN1CCN(CC(O)CCOc2ccc(C(C)(C)C)cc2)CC1 (stereo not shown) [Compound 22]
Inhibition of mitochondrial fatty acid oxidation using palmitoyl CoA as substrate - % of Control ([1]; 100 μM compound): 16%
Inhibition of mitochondrial fatty acid oxidation using palmitoyl carnitine as substrate - % of Control ([2]; 100 μM compound): 25%

Structure (SMILES): C[C@H]1CN(CC(=O)Nc2ccc(C(F)(F)F)cc2)CCN1C[C@H](O)COc1ccccc1F [Compound 54, 2-{(3S)-4-[(2S)-3-(2-fluorophenoxy)-2-hydroxypropyl]-3-methylpiperazinyl}-N-[4-(trifluoromethyl)phenyl]acetamide]
Inhibition of mitochondrial fatty acid oxidation using palmitoyl CoA as substrate - % of Control ([1]; 100 μM compound): 75%

Structure (SMILES): C[C@H]1CN(CC(=O)Nc2ccc(Cl)c(C(F)(F)F)c2)CCN1C[C@H](O)COc1ccccc1F [Compound 55, 2-{(3S)-4-[(2S)-3-(2-fluorophenoxy)-2-hydroxypropyl]-3-methylpiperazinyl}-N-[4-chloro-3-(trifluoromethyl)phenyl]acetamide]
Inhibition of mitochondrial fatty acid oxidation using palmitoyl CoA as substrate - % of Control ([1]; 100 μM compound): 11%

Structure (SMILES): COc1cc(NC(=O)CN2CCN(C[C@H](O)COc3ccccc3F)[C@@H](C)C2)cc(OC)c1 [Compound 56, 2-{(3S)-4-[(2S)-3-(2-fluorophenoxy)-2-hydroxypropyl]-3-methylpiperazinyl}-N-(3,5-dimethoxyphenyl)acetamide]
Inhibition of mitochondrial fatty acid oxidation using palmitoyl CoA as substrate - % of Control ([1]; 100 μM compound): 83%

Structure (SMILES): C[C@H]1CN(CC(=O)Nc2ccc(N3CCOCC3)cc2)CCN1C[C@H](O)COc1ccccc1F [Compound 57, 2-{(3S)-4-[(2S)-3-(2-fluorophenoxy)-2-hydroxypropyl]-3-methylpiperazinyl}-N-(4-morpholin-4-ylphenyl)acetamide]
Inhibition of mitochondrial fatty acid oxidation using palmitoyl CoA as substrate - % of Control ([1]; 100 μM compound): 73%

Structure (SMILES): COc1ccc(NC(=O)CN2CCN(C[C@H](O)COc3ccccc3F)[C@@H](C)C2)cc1F [Compound 58, 2-{(3S)-4-[(2S)-3-(2-fluorophenoxy)-2-hydroxypropyl]-3-methylpiperazinyl}-N-(3-fluoro-4-methoxyphenyl)acetamide]
Inhibition of mitochondrial fatty acid oxidation using palmitoyl CoA as substrate - % of Control ([1]; 100 μM compound): 81%

Structure (SMILES): COc1cc(NC(=O)CN2CCN(C[C@H](O)COc3ccccc3F)[C@@H](C)C2)cc(OC)c1OC [Compound 59, 2-{(3S)-4-[(2S)-3-(2-fluorophenoxy)-2-hydroxypropyl]-3-methylpiperazinyl}-N-(3,4,5-trimethoxyphenyl)acetamide]
Inhibition of mitochondrial fatty acid oxidation using palmitoyl CoA as substrate - % of Control ([1]; 100 μM compound): 76%

Structure (SMILES): COc1ccc(NC(=O)CN2CCN(C[C@H](O)COc3ccccc3F)[C@@H](C)C2)cc1OC [Compound 60, 2-{(3S)-4-[(2S)-3-(2-fluorophenoxy)-2-hydroxypropyl]-3-methylpiperazinyl}-N-(3,4-dimethoxyphenyl)acetamide]
Inhibition of mitochondrial fatty acid oxidation using palmitoyl CoA as substrate - % of Control ([1]; 100 μM compound): 81%

Structure (SMILES): C[C@H]1CN(CC(=O)Nc2ccc(Cl)cc2F)CCN1C[C@H](O)COc1ccccc1F [Compound 61, 2-{(3S)-4-[(2S)-3-(2-fluorophenoxy)-2-hydroxypropyl]-3-methylpiperazinyl}-N-(4-chloro-2-fluorophenyl)acetamide]
Inhibition of mitochondrial fatty acid oxidation using palmitoyl CoA as substrate - % of Control ([1]; 100 μM compound): 65%

Structure (SMILES): Cc1cccc(CO)c1NC(=O)CN1CCN(C[C@H](O)COc2ccccc2F)[C@@H](C)C1 [Compound 62]
Inhibition of mitochondrial fatty acid oxidation using palmitoyl CoA as substrate - % of Control ([1]; 100 μM compound): 66%

— US6677336B2, “Substituted piperazine compounds” (CV Therapeutics, Inc., priority 2000, dated 2004)
